Reference: US12606528B2, “Methods and materials for inhibiting NF-kB activity” (University of Pittsburgh - Of the Commonwealth System of …, priority 2019, dated 2026)
Read-outs that look alike come from different tables or passages of the source.

How the values were obtained:
TNF release = test: TNF assay: TNF release from LPS-stimulated human PBMCs (TNF ELISA); type: cell-based; conditions: PBMC, read-out: IC50 (TNF assay)
In short: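 Human PBMCs at 10k/well pretreated with compound dilutions 2 h, then stimulated with LPS (10 ng/mL) for 18 h. TNF in supernatants quantified by ELISA; IC50 for inhibition of TNF release fitted from concentration–response.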

NF-κB = NF-κB assay: THP1-NF-κB-LUC cells, LPS-stimulated secreted luciferase; type: cell-based; conditions: THP1-NF-κB-LUC cells, read-out: IC50 (NF-κB assay)
In short: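 THP1-NF-κB-LUC cells (25k/well) were pretreated with compounds for 2 h, then stimulated with LPS (10 ng/mL) for 18 h. Secreted luciferase was measured and normalized to vehicle, and IC50 was fitted from the concentration series.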

[1] = LPS-stimulated human PBMCs, TNF ELISA
[2] = human PBMCs, compounds 2 hours before LPS (10 ng/ml) for 18 hours, supernatant TNF ELISA
[3] = compounds 2 hours before LPS (10 ng/mL) for 18 hours, secreted luciferase

| SMILES | IC50 (TNF release; [1]) | IC50 (NF-κB; LPS-stimulated) | IC50 (TNF release; [2]) | IC50 (NF-κB; [3]) |
| --- | --- | --- | --- | --- |
| CC(C)S(=O)(=O)c1sc(-c2ccc(Cl)cc2)nc1S(=O)(=O)c1ccc(F)cc1 [BC19538] | 1 to 10 µM | 1000 to 10000 nM |  |  |
| CCS(=O)(=O)c1cc2c(c(S(=O)(=O)Nc3ccc(F)cc3F)c1)OCC(=O)N2 [BC19545] |  |  | > 10 µM | < 100 nM |
| CCc1cccc(NS(=O)(=O)c2cc3c(cc2Br)NC(=O)CCO3)c1 [BC19657] | > 10 µM | 1000 to 10000 nM |  |  |
| CCC1Oc2c(cc(Br)cc2S(=O)(=O)Nc2ccc(Cl)cc2)NC1=O (stereo not shown) [BC19290] |  |  | > 10 µM | < 100 nM |
| CC1Oc2c(cc(Cl)cc2S(=O)(=O)Nc2ccc(C#N)cc2)NC1=O (stereo not shown) [BC19730] |  |  | > 10 µM | < 100 nM |
| COc1ccc(NS(=O)(=O)c2cc3c(cc2Br)N(C)C(=O)C(C)O3)cc1 (stereo not shown) [BC19795] |  |  | 1 to 10 µM | > 10000 nM |
| CCC1Oc2c(cc(Cl)cc2S(=O)(=O)Nc2ccccc2)NC1=O (stereo not shown) [BC19738] |  |  | > 10 µM | < 100 nM |
| CCS(=O)(=O)c1oc(-c2ccc(C)cc2)nc1S(=O)(=O)c1ccc(F)cc1 [BC19125] | < 0.1 µM | < 100 nM |  |  |
| CCC[S+]([O-])c1sc(-c2ccc3ccccc3c2)nc1S(=O)(=O)c1ccc(Cl)cc1 (stereo not shown) [BC19673] | > 10 µM | 1000 to 10000 nM |  |  |
| NS(=O)(=O)c1ccc2c(c1)N1CCCC1C(=O)N2 (stereo not shown) [BC19300] | > 10 µM | 100 to 1000 nM |  |  |
| CCOc1ccc(NS(=O)(=O)c2cc(Br)cc3c2OCC(=O)N3)cc1 [BC19173] |  |  | > 10 µM | < 100 nM |
| CCOc1ccc(NS(=O)(=O)c2cc(Cl)cc3c2OC(C)C(=O)N3)cc1 (stereo not shown) [BC19355] |  |  | > 10 µM | < 100 nM |
| COc1ccc(OC)c2c(=O)c(S(=O)(=O)c3ccc(F)c(F)c3)c[nH]c12 [BC19255] |  |  | > 10 µM | 1000 to 10000 nM |
| O=S(=O)(CCCCN1CCOCC1)c1ccc2nc(-c3ccc(F)cc3)c(-c3ccc(F)cc3)nc2c1 [BC19508] | 1 to 10 µM | 100 to 1000 nM |  |  |
| CS(=O)(=O)c1sc(-c2ccccc2)nc1S(=O)(=O)c1ccc(F)c(F)c1 [BC19279] | 0.1 to 1 µM | 100 to 1000 nM |  |  |
| CCC1Oc2c(cc(Cl)cc2S(=O)(=O)Nc2ccc(F)cc2F)NC1=O (stereo not shown) [BC19748] |  |  | > 10 µM | < 100 nM |
| CC1Oc2cc(S(=O)(=O)NCc3ccc(OC(F)(F)F)cc3)c(Br)cc2NC1=O (stereo not shown) [BC19357] |  |  | > 10 µM | > 10000 nM |
| O=S(=O)(NCC1CC1)c1ccc2nc(-c3ccc(F)cc3)c(-c3ccc(F)cc3)nc2c1 [BC19506] | > 10 µM | 100 to 1000 nM |  |  |
| Fc1ccc(-c2nc3ccc(-c4nnc[nH]4)cc3nc2-c2ccc(F)cc2)cc1 [BC19143] | > 10 µM | 100 to 1000 nM |  |  |
| O=C1COc2c(cc(Cl)cc2S(=O)(=O)Nc2ccc(Cl)cc2)N1 [BC19169] |  |  | > 10 µM | < 100 nM |
| C#CCNC(=O)c1ccc2nc(-c3ccc(Cl)cc3)c(-c3ccc(Cl)cc3)nc2c1 [BC19451] | > 10 µM | 100 to 1000 nM |  |  |
| COc1ccc2[nH]cc(S(=O)(=O)c3ccc(F)cc3)c(=O)c2n1 [BC19202] |  |  | > 10 µM | > 10000 nM |
| CCCS(=O)(=O)c1snc(-c2ccc(F)cc2)c1S(=O)(=O)c1ccc(Cl)cc1 [BC19682] | < 0.1 µM | 100 to 1000 nM |  |  |
| CN1CCN(C(=O)c2ccc3nc(-c4ccc(F)cc4)c(-c4ccc(C#N)cc4)nc3c2)CC1 [BC19316] | > 10 µM | 100 to 1000 nM |  |  |
| Cc1cc(O)n2nc([S+](C)[O-])c(S(=O)(=O)c3ccccc3)c2n1 (stereo not shown) [BC19341] | > 10 µM | > 10000 nM |  |  |
| CNC(=O)c1ccc2nc(-c3ccc(F)cc3)c(-c3cccs3)nc2c1 [BC19188] | > 10 µM | 100 to 1000 nM |  |  |
| CC1Oc2cc(S(=O)(=O)NCc3ccc(F)cc3F)c(Br)cc2NC1=O (stereo not shown) [BC19356] |  |  | > 10 µM | 1000 to 10000 nM |
| COCC[S+]([O-])c1[nH]c(-c2cccc(OC)c2)nc1S(=O)(=O)c1ccc(Cl)cc1 (stereo not shown) [BC19337] | > 10 µM | > 10000 nM |  |  |
| O=C1NCCOc2c1cc(Br)cc2S(=O)(=O)Nc1ccc(OC(F)(F)F)cc1 [BC19550] | > 10 µM | < 100 nM |  |  |
